Data taken from PubChem BioAssay AID2060510 (Molecular Pharmacology Branch, DTP, NCI, 2025).
Values joined by “and” are separate entries in the source; they are usually repeats but may differ in a detail not shown here. Identical values can stand only once.

Test system: 439559-082-T-J2-PDC spheroids viability
Experiment: Anticancer human tumor 439559-082-T-J2-PDC patient-derived colon adenocarcinoma cell line growth inhibition [GQUAD]
Conditions: for viability, T/C: stronger effect = lower value; for IC50: curve of compound
Excerpt: DNA G-quadruplex Stabilizer Agents in Combinations in Complex Spheroids
A high-throughput screen of multi-cell type tumor spheroids was designed to identify active combinations of DNA G-quadruplex stabilizer agents and targeted small molecules. Complex spheroids include a stromal component modeled by human endothelial cells (HUVEC) and fibroblasts modeled by human mesenchymal stem cells (MSCs). The concentration ranges selected for each drug and investigational agent were based upon clinically achievable concentrations if the clinical Cmax of the agent was known.
Compounds. The drugs and investigational agents: pidnarulex (CX-5461; NSC782164), APTO-253 (NSC789042), BRACO-19 (NSC847499), peposertib (NSC802822), ceralasertib (NSC780249), elimusertib (NSC800525), camonsertib (NSC841442), AZD-1390 (NSC803789), olaparib (NSC753686), talazoparib (NSC767125), ART-558 (NSC835418), sotorasib (NSC818433), MRTX-1133 (NSC836407), SN-38 (NSC673596), topotecan (NSC609699), etoposide (NSC141540), doxorubicin (NSC123127), gemcitabine (NSC613327), 5-fluorouracil (NSC19893), paclitaxel (NSC125973), vemurafenib (NSC761431), panobinostat (NSC761190), R-306465 (JNJ-16241199; NSC773264), adavosertib (NSC754352), TP-3654 (NSC805149), carboplatin (NSC241240), KSQ-4279 (NSC840948), and staurosporine (NSC755774) were obtained from the National Cancer Institute (NCI) Developmental Therapeutics Program Chemical Repository (34). The FDA-approved anticancer drug set is available from the NCI Developmental Therapeutics Program. […] The stock solutions were prepared in dimethyl sulfoxide (DMSO, Sigma-Aldrich, St. Louis, MO, cat. D2650) at 800-fold the tested concentration and stored at -70 degrees C prior to their use. All drugs and investigational agents were tested over a range starting from a high concentration at or near the clinical Cmax and decreasing in half-log increments. If the clinical Cmax for an agent had not been determined, the highest concentration tested was 10 microM.
2.3 Cell Culture. All cells were maintained in an incubator at 37 degrees C and 5% CO2 with 95% humidity. The PDC lines were cultured according to standard operating procedures established by the NCI PDMR. All PDCs were thawed and cultured in Matrigel-coated flasks prepared with a working solution of 1X Ham's F-12 nutrient mix, without supplementation (Invitrogen, cat. 11765054), 100 U/mL penicillin-streptomycin (Invitrogen, cat. 15140122), and 2.5% Matrigel (Corning Inc., cat. 354248) for the first three passages. The 857933-349-R-J2-PDC line was cultured in 6C/Colon 1B media, which includes advanced DMEM/F-12 (Thermo Fisher Scientific, cat. 12634028), 10 mM HEPES (Thermo Fisher Scientific, cat. 15630080), 1X GlutaMAX supplement (Thermo Fisher Scientific, cat. 35050061), 0.1 mg/mL primocin (InvivoGen, cat. ant-pm-2), 10% defined fetal bovine serum, heat inactivated (HyClone Laboratories Inc., cat. SH30070.03HI), 50% L-WRN conditioned media (ATCC, cat. CRL-3276), 1.25 mM N-Acetyl-L-cysteine (Sigma-Aldrich, cat. A9165), 10 mM nicotinamide (Sigma-Aldrich, cat. N0636), 1X B-27 supplement (Thermo Fisher Scientific, cat. 17504044), 1X N-2 supplement (Thermo Fisher Scientific, cat. 17502048), 10 microM Y-27632 dihydrochloride (Tocris Bioscience, cat. 1254), and 50 ng/mL human EGF recombinant protein (Thermo Fisher Scientific, cat. PHG0311). The 485176-168-R4-J1-PDC line was cultured in Panc media, which includes all 6C/Colon 1B media components plus 100 ng/mL human FGF-10 (Thermo Fisher Scientific, cat. 100-26), 500 nM SB-431542 (Selleckchem, cat. S1067), and gastrin (Tocris, cat. 3006).
[…]
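Note: spheroids exposed to the agents for 7 days before readout.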
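Throughout, for viability, T/C: percent of luminescence signal in DMSO vehicle wells taken as 100% viability.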

Compound	viability, T/C (compound 0.0316 µM)	viability, T/C (compound 0.1 µM)	viability, T/C (compound 0.316 µM)	viability, T/C (compound 1 µM)	viability, T/C (compound 3.16 µM)	viability, T/C (compound 10 µM)	IC50
C#Cc1c(F)ccc2cc(O)cc(-c3ncc4c(N5CC6CCC(C5)N6)nc(OCC56CCCN5CC(F)C6)nc4c3F)c12 (stereo not drawn)	96.1% and 98.3% and 86.1%	86.3% and 94.2% and 72.7%	76.8% and 90.2% and 62.7%	75.4% and 78.3% and 59.6%	60.6% and 9.56% and 49.7%	49% and 15.8% and 45.7%	9.82 µM and 1.64 µM and 3.59 µM
C=CCn1c(=O)c2cnc(Nc3ccc(N4CCN(C)CC4)cc3)nc2n1-c1cccc(C(C)(C)O)n1	109% and 94.2% and 108%	91.1% and 90.4% and 90.3%	86.3% and 89.2% and 88%	104% and 78.4% and 93.7%	110% and 62.9% and 53.1%	43.5% and 20.1% and 21.9%	8.76 µM and 4.36 µM and 3.55 µM
CC(=O)O[C@H]1C(=O)[C@@]2(C)[C@H]([C@H](OC(=O)c3ccccc3)[C@]3(O)C[C@H](OC(=O)[C@H](O)[C@@H](NC(=O)c4ccccc4)c4ccccc4)C(C)=C1C3(C)C)[C@]1(OC(C)=O)CO[C@@H]1C[C@@H]2O	97.3% and 78.7% and 84.1%	75.3% (2×) and 83.1%	55.6% and 69.5% and 90.7%	–	–	–	0.332 µM and 2.18 µM and 2.49 µM
CC(C)(O)C1CCC(Nc2ccc3ncc(-c4cccc(C(F)(F)F)c4)n3n2)CC1 (stereo not drawn)	100% and 101% and 106%	76.5% and 92.8% and 98.9%	60.8% and 103% and 99.9%	57.9% and 71.8% and 90%	53.2% and 7.83% and 15.9%	49.5% and 12.5% and 13.8%	> 10 µM and 1.5 µM and 1.86 µM
CCCS(=O)(=O)Nc1ccc(F)c(C(=O)c2c[nH]c3ncc(-c4ccc(Cl)cc4)cc23)c1F	96.1% and 95.7% and 105%	90.8% and 96.3% and 99.1%	94.7% and 102% and 103%	71.9% and 107% and 96.1%	53.8% and 108% and 106%	20.2% and 54.8% and 54.9%	3.43 µM and > 10 µM
COc1cccc2c1C(=O)c1c(O)c3c(c(O)c1C2=O)CC(O)(C(=O)CO)CC3OC1CC(N)C(O)C(C)O1 (stereo not drawn)	95.9% and 97.8% and 102%	95.7% and 105% and 90.6%	88.5% and 84.1% and 81.5%	78.7% and 80.2% and 79.4%	61.8% and 57.9% and 63.3%	51.2% and 41.3% and 43.4%	> 10 µM and 5.6 µM and 7.09 µM
COc1ncnc(C2CC2)c1-c1ncc2cnn(Cc3ccc(-c4nc(C(F)(F)F)cn4C(C)C)cc3)c2n1	100% and 106% and 101%	101% and 109% and 97.2%	100% and 90.9% and 94.3%	104% and 89% and 94.3%	98.7% and 81.9% and 104%	98.1% and 57.4% and 89.5%	> 10 µM
Nc1ccn(C2OC(CO)C(O)C2(F)F)c(=O)n1 (stereo not drawn)	83.6% and 83.2% and 89.5%	74.3% and 67.4% and 60.4%	53.7% and 46.2% and 49.7%	38.5% and 30.7% and 32.6%	28.2% and 25.8% and 28.4%	22.9% and 26.9% and 23.2%	0.444 µM and 0.249 µM and 0.24 µM
